Results published in patent US7795315B2, “N-(2-amino-phenyl)-amide derivatives” (Hoffman-La Roche Inc., priority 2008, dated 2010).

Tests used:
Type in all cases: cell-based
[1] = tested on: p21 promoter-luciferase construct in HeLa cells; assay: p21 reporter gene induction; details: 3 micromolar, 15 hours, relative to SNDX-275
[2] = tested on: klf2 promoter-luciferase construct in A204 cells; assay: klf2 reporter gene induction (p21 versus klf2 selectivity); details: SNDX-275 p21/klf2 ratio defined as 1.0; for p21/klf2 (RP3): relative selectivity compared with SNDX-275: 3 micromolar; for p21/klf2 (RP10): relative selectivity compared with SNDX-275: 10 micromolar
[3] = tested on: HCT-116 colon cancer cells; assay: Antiproliferative activity, growth inhibition (MTS/WST assay); details: Homo sapiens, 72 hour growth inhibition, read-out: GI50 HCT116

Structure (SMILES) | p21 (RP3): relative induction potency compared with SNDX-275 [1] [%] | p21/klf2 (RP3): relative selectivity compared with SNDX-275 [2] | p21/klf2 (RP10): relative selectivity compared with SNDX-275 [2] | GI50 [3] [nM]
Nc1ccccc1NC(=O)/C=C/c1ccc(C(NCCN2CCOCC2)C(=O)Nc2ccc(Cl)cc2)cc1 (centres unmarked) [Example 30-33, (E)-N-(2-Amino-phenyl)-3-{4-[(4-chloro-phenylcarbamoyl)-(2-morpholin-4-yl-ethylamino)-methyl]-phenyl}-acrylamide] | 193 | 2.1 | 1.2 | 900
Cc1ccc(NC(=O)C(NCCN2CCOCC2)c2ccc(/C=C/C(=O)Nc3ccccc3N)cc2)cc1 (centres unmarked) [Example 30-54, (E)-N-(2-Amino-phenyl)-3-{4-[(2-morpholin-4-yl-ethylamino)-p-tolylcarbamoyl-methyl]-phenyl}-acrylamide] | 183 | 2.0 | 1.3 | 1000
